Results taken from patent publication US5149716A, “Insulin derivatives, process for their preparation, their use and a pharmaceutical preparation containing them” (Hoechst Aktiengesellschaft, priority 1989, dated 1992).

Assays:
[1] = measured by isoelectric focusing; prior art (European Patent 132,769 and 132,770); cited from earlier work
fasting male rabbits = assay: Hypoglycemic action after intravenous administration; format: in vivo, rabbit; details: i.v.; for Change in blood glucose from starting value: 6.25 microliters/kg of 2.2 mg in 1.5 ml 0.9% NaCl, 5 fasting male rabbits
Experimental: 2.2 mg of anhydrous (A-1)Thr--(AO)Arg--(B30)Des--Thr human insulin were taken up in 1.5 ml of 0.9% strength NaCl solution. 2.2 mg of human insulin, also in 1.5 ml of physiological saline solution, were used as comparison and standard substance. 6.25 microliters of sample solution/kg of live weight were in each case intravenously administered to 5 fasting male rabbits having mean weights of 3.1 kg. 6.25 microliters of standard solution per kg were likewise administered i.v. to 5 other animals. After various times, blood samples were taken and examined for blood sugar concentrations. Within the limits of error, the following measurement results were found: […]

[2] = Subcutaneous administration of a crystal suspension; format: in vivo

Substance | isoelectric point [1] | Change in blood glucose from starting value (fasting male rabbits; 1/2 h) [%] | Change in blood glucose from starting value (fasting male rabbits; 1 h) [%] | Change in blood glucose from starting value (fasting male rabbits; 2 h) [%] | Change in blood glucose from starting value (fasting male rabbits; 3 h) [%] | hypoglycemic action (fasting male rabbits; rabbits, compared with human insulin) | action profile [2] | Change in blood glucose from starting value (fasting male rabbits; 4 h) [%]
proinsulin | 5.4 | – | – | – | – | – | – | –
native insulin: unmodified native insulin | 5.4 | – | – | – | – | – | – | –
(A-1)Thr--(AO)Arg--(B30)Des--Thr human insulin [(A-1)Thr-(AO)-Arg-(B30)Des-Thr insulin] | – | -31 | -31 | -20 | -3 | of the same order of magnitude as that of the (unmodified) human insulin | acts in a sustained manner | –
human insulin | – | -28 | -27 | -18 | -11 | – | – | -6
